Laboratory results reported in patent US20110039873A1, “SUBSTITUTED PYRAZOLO[1,5-a] PYRIDINE COMPOUNDS HAVING MULTI-TARGET ACTIVITY” (priority 2009, published 2011).
Like-named read-outs stand apart in the source and are kept apart here.

What was measured:
[1] = tested on: phosphorylated c-Jun (serine-73); test: Phosphorylated c-JUN (A-beta), SH-SY5Y; format: cell-based; settings: Homo sapiens, Amyloid Beta peptide 30 uM, 3 hours, read-out: p-cJun Abeta SH-SY5Y (EC50 in μM)
Procedure: In 96-well plates either human SH-SY5Y neuroblastoma cells at 2.5×10^4 cells/well or E18 rat neuronal cells at 1.5×10^4 cells/well were seeded. […] Supernatant was discarded and cells were fixed with 4% paraformaldehyde (100 ul/well) for 20 minutes. FACE cell based ELISA assay (Active Motif) was performed specific for quantifying phosphorlyated c-Jun (serine-73).

[2] = tested on: phosphorylated c-Jun (serine-73); test: Phosphorylated c-JUN (A-beta), E18 rat neuronal cells; format: cell-based; settings: Amyloid Beta peptide 30 uM, 3 hours, read-out: p-cJun Abeta E18 (EC50 in μM)
Procedure: In 96-well plates either human SH-SY5Y neuroblastoma cells at 2.5×10^4 cells/well or E18 rat neuronal cells at 1.5×10^4 cells/well were seeded. To each well the following was added, Amyloid Beta peptide 1-25 (source) at a concentration of 30 uM, retinoic acid (10 uM) and test compounds (0-30 uM) and incubated for 3 hours. Supernatant was discarded and cells were fixed with 4% paraformaldehyde (100 ul/well) for 20 minutes. FACE cell based ELISA assay (Active Motif) was performed specific for quantifying phosphorlyated c-Jun (serine-73).

[3] = molecular target: T1, recombinant full length human JNK2 enzyme (Homo sapiens, UniProt P45984); test: JNK 2 inhibition assay (ATP depletion, luciferase); format: biochemical
T1 construct: recombinant full length human JNK2 or JNK3 enzyme; purchased Upstate; host or cells: Sf21 cells
Procedure: In a 96-well plate, recombinant full length human JNK2 or JNK3 enzyme (40 ng) expressed in Sf21 cells (Upstate) was incubated with the substrate ATF2 (3 uM) for 1 hour in the presence of 10 uM ATP. […] IC50 calculations were plotted using a nonlinear regression curve fit.

[4] = tested on: phosphorylated c-Jun (serine-73); test: Phosphorylated c-JUN (6-OHDA), SH-SY5Y; format: cell-based; settings: Homo sapiens, 50 uM 6-hydroxydopamine, 1.5 hours, read-out: p-cJun 6-OHDA SH-SY5Y (EC50 in μM)
Procedure: Human SH-SY5Y neuroblastoma cells were cultured in 96-well plates with 2.5×10^4 cells/well and incubated for 48 hours. 6-hydroxydopamine was added at a concentration of 50 uM in the presence or absence of test compounds (0-30 uM) and incubated for 1.5 hours. Supernatant was discarded and cells were fixed with 4% paraformaldehyde (100 ul/well) for 20 minutes. FACE cell based ELISA assay (Active Motif) was performed specific for quantifying phosphorlyated c-Jun (serine-73).

[5] = tested on: Mouse BV-2 microglial cells; test: BV-2 glial cell assay (TNF-α and MCP-1 by Luminex); format: cell-based; settings: for EC50: Mus musculus, BV-2, LPS and IFN-γ activated, 20 hours; for inhibiting glial cell activation (TNF-α and/or MCP-1): Table 3
Procedure: Mouse BV-2 microglial cells were seeded on 96-well plates at a concentration of 3×10^4 cells/well. Cells were activated with 100 ng/mL LPS and IFN-γ (100 ng/mL) in the presence or absence of test compounds (0-30 uM). Following incubation for 20 hours, cells were spun down and supernatant collected. The supernatant was analyzed via Luminex for the presence of TNF-α and MCP-1.

[6] = molecular target: T2, recombinant full length human JNK3 enzyme (Homo sapiens, UniProt P53779); test: JNK 3 inhibition assay (ATP depletion, luciferase); format: biochemical; settings: for IC50: 10 uM ATP, ATF2 substrate; for JNK-3 inhibition (in words): see Table 2
T2 construct: recombinant full length human JNK2 or JNK3 enzyme; purchased Upstate; host or cells: Sf21 cells
Procedure: In a 96-well plate, recombinant full length human JNK2 or JNK3 enzyme (40 ng) expressed in Sf21 cells (Upstate) was incubated with the substrate ATF2 (3 uM) for 1 hour in the presence of 10 uM ATP. […] The ATP levels were quantified using luciferase with luminescence read on a Victor Light 1420 luminometer. IC50 calculations were plotted using a nonlinear regression curve fit.

[7] = molecular target: T3, recombinant human phosphodiesterase 10A1 enzyme (Homo sapiens, UniProt Q9Y233); test: PDE10 inhibition assay (PDELight); format: biochemical; settings: for IC50: 1 uM cAMP, read-out: PDE 10 Inhibition (IC50 in μM); for PDE-10 inhibition (in words): Table 2
T3 construct: purchased BPS Biosciences; host or cells: Baculovirus infected Sf9 cells

[8] = tested on: rat chronic constriction injury (CCI) model of neuropathic pain; test: Rat chronic constriction injury (CCI) model of neuropathic pain; format: in vivo; settings: IP, dose not given; 50% paw withdrawal threshold, von Frey
Procedure: To induce allodynia, male Sprague-Dawley rats underwent chronic constriction injury (CCI) to the sciatic nerve as described by Bennett and Xie, Pain 1988; 33(1):87-107. The plantar surface of the hind paws was stimulated with von Frey filaments (Stoelting) to induce a withdrawal response by blinded personnel. The bending force of fiber required to induce a 50% withdrawal response was calculated following CCI surgery (pre-dosing baseline). N=5-6 allodynic rats received a single IP or oral administration of test compounds or vehicle. Two hours post-dosing, 50% paw withdrawal threshold was determined again by blinded testers using von Frey filaments. The 50% withdrawal threshold prior to CCI surgery, pre-dosing (10 days post-surgery), and 2 hours post-dosing are plotted.
For selected compounds multi-day studies were perfumed with pre-determined schedules for dosing and withdrawal threshold assessments.

[9] = tested on: at least one of JNK 3 or JNK 2 and at least one of PDE 10 or PDE 4; test: Dual inhibition (phosphodiesterase and JNK); format: biochemical, human; settings: IC50 JNK 3 or JNK 2 less than about 5.00 μM and PDE 10 or PDE 4 less than about 20.0 or 30.0 μM
Procedure: In a 96-well plate, recombinant full length human JNK2 or JNK3 enzyme (40 ng) expressed in Sf21 cells (Upstate) was incubated with the substrate ATF2 (3 uM) for 1 hour in the presence of 10 uM ATP. The amount of ATP depletion by the JNK enzyme is measured in the presence or absence of test compounds (0-30 uM). The ATP levels were quantified using luciferase with luminescence read on a Victor Light 1420 luminometer. IC50 calculations were plotted using a nonlinear regression curve fit.
(§1) In a 96-well plate, the catalytic domain of phosphodiesterase 4B enzyme (40 mU/well) cloned from human brain (Scottish Biomedical) was combined with 5 uM cAMP substrate (Sigma). Test compounds (0-30 uM) or vehicle (0.5% DMSO) were added to the enzyme/substrate and incubated 1 hour. Using a PDELight® kit (Cambrex), the amount of AMP produced in the reaction from the hydrolysis of cAMP was quantified using PDELight AMP Detection Reagent which converts the AMP directly to ATP. The assay uses luciferase, which catalyses the formation of light from the newly formed ATP and luciferin. The luminescence was read on a Victor Light 1420 luminometer. IC50 calculations were plotted using a nonlinear regression curve fit.
as §1, with “plate, recombinant human” for “plate, the catalytic domain of”, “phosphodiesterase 10A1” for “phosphodiesterase 4B”, “enzyme (10 U/well) expressed in Baculovirus infected Sf9 cells (BPS Biosciences)” for “enzyme (40 mU/well) cloned from human brain (Scottish Biomedical)”, “with 1” for “with 5”

[10] = molecular target: T4, catalytic domain of phosphodiesterase 4B enzyme cloned from human brain (Homo sapiens, UniProt Q07343); test: PDE4 inhibition assay (PDELight); format: biochemical; settings: for IC50: 5 uM cAMP, read-out: PDE 4 Inhibition (IC50 in μM)
T4 construct: the catalytic domain of phosphodiesterase 4B enzyme; purchased Scottish Biomedical
Summary of the method: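 Human PDE4B catalytic domain (40 mU/well) incubated with 5 uM cAMP. AMP formed was converted to ATP and measured by luciferase luminescence (PDELight). IC50 derived by nonlinear regression curve fit.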

[11] = Oral pharmacokinetic evaluation; format: in vivo, rat; settings: Sprague-Dawley rats; for half-life / AUC(0-t) / Cmax: male, rat, plasma; for half-life: Sprague-Dawley, po, 15 mg/kg; for AUC(0-t): read-out: Oral PK AUClast; for Cmax: read-out: Oral PK Cmax
Procedure: Three male Sprague-Dawley rats were dosed orally via gavage with 15 mg/kg of test compound. Serial blood samples were collected from the jugular vein at 5, 15, and 30 min, 1, 3, and 6 hours post dosing. Samples were processed for plasma via centrifugation and plasma samples were stored frozen prior to analysis via a sensitive and specific HPLC/MS/MS method. PK parameters were calculated using WinNonLin (Pharsight).

[12] = 10 uM ATP, ATF2 substrate, read-out: JNK 2 Inhibition (IC50 in μM)
[13] = read-out: MCP-1 BV-2 (EC50 in μM)
[14] = read-out: TNF-a BV-2 (EC50 in μM)
[15] = 15 mg/kg oral gavage, read-out: Oral PK T½ (converted)

T4 sequence (Q07343 330-659 limits assumed): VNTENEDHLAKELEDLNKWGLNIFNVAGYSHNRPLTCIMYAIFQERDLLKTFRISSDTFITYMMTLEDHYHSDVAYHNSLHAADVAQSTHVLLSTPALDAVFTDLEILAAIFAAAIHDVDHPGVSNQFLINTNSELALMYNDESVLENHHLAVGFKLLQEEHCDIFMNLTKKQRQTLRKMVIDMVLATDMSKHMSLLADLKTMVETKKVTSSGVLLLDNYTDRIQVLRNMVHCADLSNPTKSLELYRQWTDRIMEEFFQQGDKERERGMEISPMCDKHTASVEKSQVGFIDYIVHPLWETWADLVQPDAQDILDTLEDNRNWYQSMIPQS
T1 sequence (P45984 whole entry): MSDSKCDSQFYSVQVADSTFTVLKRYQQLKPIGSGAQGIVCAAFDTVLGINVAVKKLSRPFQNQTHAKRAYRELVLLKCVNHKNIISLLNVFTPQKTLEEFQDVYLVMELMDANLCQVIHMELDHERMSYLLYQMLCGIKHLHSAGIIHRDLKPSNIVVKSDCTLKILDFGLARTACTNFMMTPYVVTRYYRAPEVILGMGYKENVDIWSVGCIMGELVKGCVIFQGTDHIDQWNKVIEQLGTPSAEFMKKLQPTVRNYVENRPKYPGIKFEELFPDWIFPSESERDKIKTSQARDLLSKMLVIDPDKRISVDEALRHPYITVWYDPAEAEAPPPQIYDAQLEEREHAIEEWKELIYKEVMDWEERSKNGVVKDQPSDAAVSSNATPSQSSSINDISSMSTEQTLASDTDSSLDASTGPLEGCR
T3 sequence (Q9Y233 1-779 isoform Q9Y233-1): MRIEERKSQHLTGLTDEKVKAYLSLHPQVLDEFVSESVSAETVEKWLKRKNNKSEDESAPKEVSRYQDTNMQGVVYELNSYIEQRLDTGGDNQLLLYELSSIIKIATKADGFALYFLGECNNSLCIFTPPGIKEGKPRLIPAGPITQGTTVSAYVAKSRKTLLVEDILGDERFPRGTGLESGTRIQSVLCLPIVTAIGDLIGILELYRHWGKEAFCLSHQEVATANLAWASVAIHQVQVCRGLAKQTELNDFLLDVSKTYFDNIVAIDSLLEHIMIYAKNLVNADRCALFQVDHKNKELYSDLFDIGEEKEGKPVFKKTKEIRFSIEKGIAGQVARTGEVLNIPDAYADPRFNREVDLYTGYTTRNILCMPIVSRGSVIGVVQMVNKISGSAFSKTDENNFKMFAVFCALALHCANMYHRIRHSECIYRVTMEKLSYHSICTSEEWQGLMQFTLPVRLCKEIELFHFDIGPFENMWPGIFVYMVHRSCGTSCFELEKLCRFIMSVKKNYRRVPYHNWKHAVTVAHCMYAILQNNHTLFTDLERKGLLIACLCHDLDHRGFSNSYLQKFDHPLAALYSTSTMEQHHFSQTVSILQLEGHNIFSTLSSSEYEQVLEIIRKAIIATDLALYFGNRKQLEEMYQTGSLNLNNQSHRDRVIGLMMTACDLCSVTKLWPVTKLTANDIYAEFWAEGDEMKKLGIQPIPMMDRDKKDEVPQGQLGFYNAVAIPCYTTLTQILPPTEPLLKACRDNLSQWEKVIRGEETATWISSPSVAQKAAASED
T2 sequence (P53779 whole entry): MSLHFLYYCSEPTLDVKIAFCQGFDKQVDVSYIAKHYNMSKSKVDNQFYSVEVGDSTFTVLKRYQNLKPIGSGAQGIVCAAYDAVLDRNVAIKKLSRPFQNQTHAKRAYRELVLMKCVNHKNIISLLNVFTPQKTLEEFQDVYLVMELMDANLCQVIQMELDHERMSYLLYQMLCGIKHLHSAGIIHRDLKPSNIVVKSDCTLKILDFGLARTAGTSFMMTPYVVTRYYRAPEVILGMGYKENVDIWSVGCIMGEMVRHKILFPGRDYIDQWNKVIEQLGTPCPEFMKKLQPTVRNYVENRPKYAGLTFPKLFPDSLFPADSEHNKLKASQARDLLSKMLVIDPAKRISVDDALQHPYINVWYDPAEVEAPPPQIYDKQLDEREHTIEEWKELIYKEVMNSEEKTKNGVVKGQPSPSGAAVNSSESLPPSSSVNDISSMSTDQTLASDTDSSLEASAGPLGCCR

Compound | EC50 [1] [µM] | IC50 [3, 12] [µM] | EC50 [4] [µM] | EC50 [5, 13] [µM] | EC50 [5, 14] [µM] | IC50 [6] [µM] | IC50 [7] [µM] | IP CCI efficacy (Change in grams) [8] | inhibiting glial cell activation (TNF-α and/or MCP-1) [5] | JNK-3 inhibition (in words) [6] | dual inhibition (phosphodiesterase and JNK) [9] | PDE-4 inhibition (in words) [10] | IC50 [10] [µM] | half-life [11, 15] [h] | AUC(0-t) ([11]; 15 mg/kg oral gavage) [ng·h/mL] | Cmax ([11]; 15 mg/kg oral gavage) [ng/mL] | further results
CC(C)C(=O)c1c(C(C)C)nn2ccccc12 [AV411, 1-(2-isopropylpyrazolo[1,5-a]pyridin-3-yl)-2-methylpropan-1-one, reference compound] | 3.8 | > 100 | > 30 | 42 | 2.7 | > 100 | 6.3 |  |  |  |  |  |  |  |  |  | EC50 [2]: > 30 µM
CC(C)CNc1nccc(-c2c(C(C)C)nn3ccccc23)n1 [AV1158, N-isobutyl-4-(2-isopropylpyrazolo[1,5-a]pyridin-3-yl)pyrimidin-2-amine] | > 30 |  | > 30 | 1.2 | 1 | 1.2 | 8.4 | 0.93 grams | Particularly effective | particularly effective | effective dual inhibitors | particularly effective | 3.4 |  |  |  | PDE-10 inhibition (in words) [7]: particularly effective
CC(C)Cc1nn2ccccc2c1-c1ccnc(NC2CCCC2)n1 [AV1178, N-cyclopentyl-4-(2-isobutylpyrazolo[1,5-a]pyridin-3-yl)pyrimidin-2-amine] | > 30 | 2.8 |  |  |  | 3.6 | > 100 |  |  |  | effective dual inhibitors | particularly effective | 5.4 |  |  |  | 
Fc1cccc(-c2nn3ccccc3c2-c2ccnc(NC3CCCC3)n2)c1 [AV1180, N-cyclopentyl-4-(2-(3-fluorophenyl)pyrazolo[1,5-a]pyridin-3-yl)pyrimidin-2-amine] | 4.1 |  | > 30 | 1.6 | 0.04 | 0.3 | 53.5 | 0 grams | Particularly effective | particularly effective | effective dual inhibitors |  | 16.4 | 1.8 | 160 | 58 | half life following oral dosing (in words) ([11]; oral): particularly prolonged half lives
Cc1cccc2c(-c3ccnc(NC(C)C)n3)cnn12 [AV1183, N-isopropyl-4-(7-methylpyrazolo[1,5-a]pyridin-3-yl)pyrimidin-2-amine] | 5.4 |  | 0.3 | 1.2 | 1.1 | 0.2 | 35 | 0.3 grams | Particularly effective | particularly effective | effective dual inhibitors | particularly effective | 6.2 | 1.1 | 35 | 56 | 
c1ccn2nc(C3CC3)c(-c3ccnc(NC4CCCC4)n3)c2c1 [AV1198, N-cyclopentyl-4-(2-cyclopropylpyrazolo[1,5-a]pyridin-3-yl)pyrimidin-2-amine] |  | 1.4 |  | 0.3 | 3.3 | 2.8 | 6.8 | [0] grams | Particularly effective | particularly effective | effective dual inhibitors | particularly effective | 3.4 | 3.6 | 79 | 30 | IC50 ([3]; read-out: IC50 value based upon a JNK 2 inhibition assay (range given)): 0.01 to 2 µM; half life following oral dosing (in words) ([11]; oral): particularly prolonged half lives; half-life ([11]; oral, read-out: half life following oral dosing): > 3 h; PDE-10 inhibition (in words) [7]: particularly effective
Oc1c2ccccc2c2c3c(cccc13)N=N2 [SP600125, reference compound] |  |  | 0.6 |  |  | 0.2 |  | 0.5 grams |  |  |  |  |  |  |  |  | EC50 [2]: 7.6 µM
